One test has as its system HeLa. In words: Cytotoxicity against human HeLa cells. The test is classed as cell-based.
A short description of test [1]: Toxicity against Lactobacillus jensenii ATCC 25258.
The test system of test [2] is Trichomonas vaginalis. As to the kind of experiment: Antitrichomonas activity against metronidazole-resistant Trichomonas vaginalis ATCC 50143. The test is classed as functional.
Another test deals with Spermatozoa. In words: Spermicidal activity against human spermatozoa assessed as immobilization measured for 60 seconds. It counts as functional. More on the design: concentration or dose not given beside the values.
The test system of test [3] is Trichomonas vaginalis. As to the kind of experiment: Antitrichomonas activity against metronidazole-susceptible Trichomonas vaginalis. The test is classed as functional.
Test [4] relates to Trichomonas vaginalis. As to the kind of experiment: Ratio of MIC for metronidazole to compound for metronidazole-susceptible Trichomonas vaginalis. The test is classed as functional.
Test [5] has as its system Trichomonas vaginalis. In words: Ratio of MIC for metronidazole to compound for metronidazole-resistant Trichomonas vaginalis ATCC 50143. It counts as functional.

Each structure is given as a SMILES string. Values after ≈ are worked out from the molar mass of the structure shown.

As usually defined, the IC50 is the midpoint of a concentration-inhibition curve. Usually MIC stands for the lowest concentration that inhibits growth of the organism. For `Cc1ncc([N+](=O)[O-])n1CCO` [METRONIDAZOLE], the IC50 (with HeLa; in test [1]) was > 1000 µg/mL throughout. Further, the MIC in the test with Trichomonas vaginalis [2] was 292 µM (≈ 50 µg/mL); in the test with Trichomonas vaginalis [3], 11.7 µM (≈ 2 µg/mL). Besides, the Activity in the test with Spermatozoa is listed as <100%.

As to `CCCCCCCCCc1ccc(OCCOCCOCCOCCOCCOCCOCCOCCOCCO)cc1` [NONOXYNOL 9], the IC50 (in the test with HeLa; in test [1]) was 33 µg/mL (≈ 53.5 µM) throughout. The Activity in the test with Spermatozoa came to 100%.

For the compound `Cc1ncc([N+](=O)[O-])n1CCSC(=S)N1CCC(OS(C)(=O)=O)CC1`, the IC50 (with HeLa; in test [1]) was > 1000 µg/mL in each case. Also, the MIC against Trichomonas vaginalis [2] came to 61.3 µM (≈ 25 µg/mL); in the test with Trichomonas vaginalis [3], 12.4 µM (≈ 5.07 µg/mL). The Activity in the test with Spermatozoa is given as 100%.

In the case of `Cc1ncc([N+](=O)[O-])n1CCSC(=S)N1CCC(C)CC1`, the IC50 in the test with HeLa was 190 µg/mL (≈ 578 µM); in test [1], > 1000 µg/mL. Further, the Ratio in the test with Trichomonas vaginalis [4] came out at 10; in the test on Trichomonas vaginalis [5], 20. The MIC in the test on Trichomonas vaginalis [2] worked out at 14.3 µM (≈ 4.7 µg/mL); with Trichomonas vaginalis [3] it was 1.03 µM (≈ 0.338 µg/mL). For the same compound, in the test on Spermatozoa, the Activity amounted to 100%.

On to `Cc1ncc([N+](=O)[O-])n1CCSC(=S)N1CCC(OC(=O)CSC(=S)N2CCCC2)CC1`, for which the IC50 (in the test on HeLa; in test [1]) was > 1000 µg/mL each time. Also, the MIC is 96.7 µM (≈ 50.1 µg/mL) in the test on Trichomonas vaginalis [2] and 2.41 µM (≈ 1.25 µg/mL) with Trichomonas vaginalis [3]. For the same compound, the Activity in the test with Spermatozoa is given as <100%.

For the compound `Cc1ncc([N+](=O)[O-])n1CCSC(=S)N1CCC(Cc2ccccc2)CC1`, the IC50 (in the test with HeLa; in test [1]) was > 1000 µg/mL throughout. The MIC against Trichomonas vaginalis [2] worked out at 49.5 µM (≈ 20 µg/mL); with Trichomonas vaginalis [3] it was 12.4 µM (≈ 5.02 µg/mL). Further, the Activity in the test with Spermatozoa amounted to 100%.

As to `Cc1ncc([N+](=O)[O-])n1CCSC(=S)N1CCC(OC(=O)CN2CCOCC2)CC1`, the IC50 in the test on HeLa was 840 µg/mL (≈ 1840 µM); in test [1], > 1000 µg/mL. The MIC in the test on Trichomonas vaginalis [2] turned out to be 54.7 µM (≈ 25 µg/mL); against Trichomonas vaginalis [3], 1.36 µM (≈ 0.622 µg/mL). The Activity in the test on Spermatozoa was <100%.

In the case of `Cc1ncc([N+](=O)[O-])n1CCSC(=S)N1CCCCC1C` (stereo not drawn), the IC50 in the test with HeLa was 170 µg/mL (≈ 518 µM); in test [1], > 1000 µg/mL. Further, the Ratio in the test with Trichomonas vaginalis [4] is 3; in the test with Trichomonas vaginalis [5], 10. For the same compound, the MIC in the test on Trichomonas vaginalis [2] was 15.2 µM (≈ 4.99 µg/mL); against Trichomonas vaginalis [3] it was 1.9 µM (≈ 0.624 µg/mL). Also, the Activity in the test with Spermatozoa worked out at 100%.

Take `Cc1ncc([N+](=O)[O-])n1CCSC(=S)N1CCC(OC(=O)C(Cl)Cl)CC1`: the IC50 is > 1000 µg/mL in the test with HeLa and 740 µg/mL (≈ 1680 µM) in test [1]. The values for the MIC in the test with Trichomonas vaginalis [2] and in the test on Trichomonas vaginalis [3] were 56.7 µM (≈ 25 µg/mL) and 1.53 µM (≈ 0.675 µg/mL), respectively. In the test on Spermatozoa, the Activity is 100%.

Regarding `Cc1ncc([N+](=O)[O-])n1CCSC(=S)N1CCC(C#N)(c2ccccc2)CC1`, the IC50 (with HeLa; in test [1]) was > 1000 µg/mL each time. Besides, the MIC in the test on Trichomonas vaginalis [2] came to 24.1 µM (≈ 10 µg/mL); against Trichomonas vaginalis [3] it was 1.68 µM (≈ 0.698 µg/mL). Moreover, in the test on Spermatozoa, the Activity is <100%.

As for `Cc1ncc([N+](=O)[O-])n1CCSC(=S)N1CCC(OC(=O)CN2CCCCC2)CC1`, the IC50 was 760 µg/mL (≈ 1670 µM) with HeLa and > 1000 µg/mL in test [1]. In addition, the MIC in the test on Trichomonas vaginalis [2] came out at 54.9 µM (≈ 25 µg/mL); against Trichomonas vaginalis [3] it was 1.37 µM (≈ 0.624 µg/mL). In addition, the Activity in the test on Spermatozoa was <100%.

Consider `Cc1ncc([N+](=O)[O-])n1CCSC(=S)N1CCC(O)CC1`, for which the values for the IC50 (with HeLa; in test [1]) were 930 µg/mL (≈ 2810 µM) and 350 µg/mL (≈ 1060 µM), respectively. For the same compound, the MIC in the test on Trichomonas vaginalis [2] was 30.3 µM (≈ 10 µg/mL); against Trichomonas vaginalis [3], 1.41 µM (≈ 0.466 µg/mL). For the same compound, in the test on Spermatozoa, the Activity is reported as 100%.

Turning to `Cc1ncc([N+](=O)[O-])n1CCSC(=S)N1CCC2(CC1)OCCO2`, the IC50 (in the test on HeLa; in test [1]) was > 1000 µg/mL in each case. In addition, the MIC against Trichomonas vaginalis [2] is 26.9 µM (≈ 10 µg/mL); against Trichomonas vaginalis [3] it was 1.9 µM (≈ 0.708 µg/mL). Moreover, the Activity in the test on Spermatozoa was <100%.

Take `Cc1ncc([N+](=O)[O-])n1CCSC(=S)N1CCCC(C)C1` (stereo not drawn): the IC50 in the test with HeLa is 170 µg/mL (≈ 518 µM); in test [1] it was > 1000 µg/mL. The Ratio is listed as 3 in the test on Trichomonas vaginalis [4] and 10 in the test on Trichomonas vaginalis [5]. Moreover, the results for the MIC in the test on Trichomonas vaginalis [2] and with Trichomonas vaginalis [3] were 15.2 µM (≈ 4.99 µg/mL) and 1.9 µM (≈ 0.624 µg/mL), respectively. Also, the Activity in the test on Spermatozoa turned out to be 100%.

`Cc1ncc([N+](=O)[O-])n1CCSC(=S)N1C(C)CCCC1C` (stereo not drawn): the figures for the 50% inhibitory concentration (IC50) (in the test on HeLa; in test [1]) were 130 µg/mL (≈ 380 µM) and > 1000 µg/mL, respectively. For the same compound, the Ratio in the test with Trichomonas vaginalis [4] is 3; in the test on Trichomonas vaginalis [5] it was 10. Moreover, the MIC came to 29.2 µM (≈ 10 µg/mL) against Trichomonas vaginalis [2] and 1.83 µM (≈ 0.627 µg/mL) in the test on Trichomonas vaginalis [3]. Moreover, the Activity in the test with Spermatozoa is on record as 100%.

As for `CCOC(=O)C1CCN(C(=S)SCCn2c([N+](=O)[O-])cnc2C)CC1`, the IC50 with HeLa is 510 µg/mL (≈ 1320 µM); in test [1] it was > 1000 µg/mL. Also, the MIC with Trichomonas vaginalis [2] stood at 64.8 µM (≈ 25 µg/mL); in the test with Trichomonas vaginalis [3], 3.24 µM (≈ 1.25 µg/mL). Also, the Activity in the test with Spermatozoa came out at 100%.

On to `Cc1ncc([N+](=O)[O-])n1CCSC(=S)N1CCC(OC(=O)CSC(=S)N2CCCCC2)CC1`, for which the IC50 with HeLa was 980 µg/mL (≈ 1840 µM); in test [1], > 1000 µg/mL. Besides, the figures for the MIC with Trichomonas vaginalis [2] and with Trichomonas vaginalis [3] were 37.7 µM (≈ 20 µg/mL) and 2.35 µM (≈ 1.25 µg/mL), respectively. The Activity in the test with Spermatozoa is <100%.

`Cc1ncc([N+](=O)[O-])n1CCSC(=S)N1CCC(=O)CC1`: the concentration for half-maximal inhibition (IC50) was > 1000 µg/mL with HeLa and 380 µg/mL (≈ 1160 µM) in test [1]. The MIC in the test on Trichomonas vaginalis [2] was 30.5 µM (≈ 10 µg/mL); in the test with Trichomonas vaginalis [3], 1.89 µM (≈ 0.621 µg/mL). Further, in the test with Spermatozoa, the Activity is given as <100%.

As to `CCC1CCCCN1C(=S)SCCn1c([N+](=O)[O-])cnc1C` (stereo not drawn), the IC50 with HeLa is 94 µg/mL (≈ 274 µM); in test [1], > 1000 µg/mL. In addition, the figures for the Ratio in the test with Trichomonas vaginalis [4] and in the test on Trichomonas vaginalis [5] were 3 and 10, respectively. For the same compound, the figures for the MIC in the test with Trichomonas vaginalis [2] and in the test on Trichomonas vaginalis [3] were 14.6 µM (≈ 5 µg/mL) and 3.65 µM (≈ 1.25 µg/mL), respectively. Besides, the Activity with Spermatozoa was 100%.

As to `Cc1ncc([N+](=O)[O-])n1CCSC(=S)N1CCC(OC(=O)CCl)CC1`, the IC50 in the test with HeLa was found to be 930 µg/mL (≈ 2290 µM); in test [1], 590 µg/mL (≈ 1450 µM). The MIC against Trichomonas vaginalis [2] came out at 246 µM (≈ 100 µg/mL); in the test with Trichomonas vaginalis [3] it was 49.3 µM (≈ 20.1 µg/mL). Also, in the test on Spermatozoa, the Activity amounted to 100%.
